Type in all cases: in vivo
The test system of assay [1] is Echinochloa crus-galli (ECHCG). Put plainly: Herbicidal pre-emergence action, section A (Table A3). The settings on record: visual grading after ca. 3 weeks vs untreated controls. The procedure, abridged: (§1)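 Visual scoring at approximately 3 weeks, relative to untreated pots, gave percent effect after compounds in WP or EC form were sprayed onto covering soil of sown seeds (sandy loam) in water with 0.5% additive at 600 l/ha, then kept in greenhouse.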

Assay [2] has as its system Kochia scoparia (KCHSC). Kind of assay: Herbicidal pre-emergence action, section A (Table A4). To be noted: visual grading after ca. 3 weeks vs untreated controls. The method, boiled down: as §1
Assay [3] has as its system Lolium rigidum (LOLRI). Kind of assay: Herbicidal pre-emergence action, section A (Table A5). To be noted: visual grading after ca. 3 weeks vs untreated controls. The procedure, abridged: as §1
Assay [4] relates to Matricaria inodora (MATIN). Kind of assay: Herbicidal pre-emergence action, section A (Table A6). The settings on record: application rate 1280 g/ha, visual grading after ca. 3 weeks vs untreated controls; for pest or weed control at 1280 g/ha: Tripleurospermum inodorum, pre-emergence, 504 h, read-out: pre-emergence activity against MATIN in %. The method, boiled down: as §1
Assay [5] deals with Poa annua (POAAN). Put plainly: Herbicidal pre-emergence action, section A (Table A7). The settings on record: visual grading after ca. 3 weeks vs untreated controls. The procedure, abridged:
as §1

The subject of assay [6] is Setaria viridis (SETVI). Kind of assay: Herbicidal pre-emergence action, section A (Table A8). The procedure, abridged:
as §1

Assay [7] deals with Stellaria media (STEME). Kind of assay: Herbicidal pre-emergence action, section A (Table A9). The settings on record: application rate 320 g/ha; for pest or weed control at 320 g/ha: Stellaria media, 504 h, read-out: pre-emergence activity against STEME in %. The procedure, abridged: as §1
For assay [8], the system named is Veronica persica (VERPE). Put plainly: Herbicidal pre-emergence action, section A (Table A10). To be noted: for pest or weed control at 320 g/ha: Veronica persica, 504 h, application rate 320 g/ha, read-out: pre-emergence activity against VERPE in %. The method, boiled down:
as §1

In assay [9] the test system is Amaranthus retroflexus (AMARE). Put plainly: Herbicidal pre-emergence action, section A (Table A11). The procedure, abridged:
as §1

In assay [10] the test system is Digitaria sanguinalis (DIGSA). Kind of assay: Herbicidal pre-emergence action, section A (Table A12). The settings on record: for pest or weed control at 1280 g/ha: Digitaria sanguinalis, 504 h, application rate 1280 g/ha, read-out: pre-emergence activity against DIGSA in %. The procedure, abridged: as §1
The test system of assay [11] is Abutilon theophrasti (ABUTH). Kind of assay: Herbicidal post-emergence action, section B (Table B1). The settings on record: Abutilon theophrasti, 504 h, application rate 1280 g/ha, rated visually after about 3 weeks, read-out: post-emergence activity against ABUTH in %. The method, then:
(§2) Seeds of mono- and dicotyledonous weed plants were placed in plastic pots in sandy loam soil (doubly sown with in each case one species of mono- or dicotyledonous weed plants per pot), covered with soil and cultivated in a greenhouse under controlled growth conditions. 2 to 3 weeks after sowing, the test plants were treated at the one-leaf stage. The compounds of the invention, formulated in the form of wettable powders (WP) or as emulsion concentrates (EC), were applied onto the green parts of the plants as aqueous suspension or emulsion with addition of 0.5% additive at a water application rate of 600 liters per hectare (converted). After the test plants had been kept in the greenhouse under optimum growth conditions for about 3 weeks, the activity of the preparations was rated visually in comparison to untreated controls. For example, 100% activity=the plants have died, 0% activity=like control plants.

The test system of assay [12] is Echinochloa crus-galli (ECHCG). Kind of assay: Herbicidal post-emergence action, section B (Table B3). To be noted: rated visually after about 3 weeks. The method, then:
as §2

Assay [13] concerns Lolium rigidum (LOLRI). Put plainly: Herbicidal post-emergence action, section B (Table B5). To be noted: application rate 1280 g/ha, visual rating about 3 weeks after treatment vs untreated controls; for pest or weed control at 1280 g/ha: Lolium rigidum, post-emergence, 504 h, read-out: post-emergence activity against LOLRI in %. The method, then:
as §2

In assay [14] the test system is Poa annua (POAAN). Kind of assay: Herbicidal post-emergence action, section B (Table B7). The settings on record: Poa annua, post-emergence, 504 h, visual rating about 3 weeks after treatment vs untreated controls, read-out: post-emergence activity against POAAN in %. The procedure, abridged: (§3)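 Greenhouse post-emergence spray on one-leaf-stage plants (sown in sandy loam, 2 to 3 weeks old). WP/EC formulations in water + 0.5% additive, 600 liters per hectare. Read-out: visual % activity vs untreated, ~3 weeks after treatment; 100% = dead, 0% = as control.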

The subject of assay [15] is Setaria viridis (SETVI). Kind of assay: Herbicidal post-emergence action, section B (Table B8). The settings on record: Setaria viridis, post-emergence, 504 h; application rate 320 g/ha; visual rating about 3 weeks after treatment vs untreated controls; read-out: post-emergence activity against SETVI in %. The method, then:
as §2

For assay [16], the system named is Stellaria media (STEME). Put plainly: Herbicidal post-emergence action, section B (Table B9). To be noted: visual rating about 3 weeks after treatment vs untreated controls; for pest or weed control at 1280 g/ha: Stellaria media, post-emergence, 504 h, application rate 1280 g/ha, read-out: post-emergence activity against STEME in %. The method, boiled down:
as §3

Assay [17] relates to Veronica persica (VERPE). Kind of assay: Herbicidal post-emergence action, section B (Table B10). To be noted: Veronica persica, post-emergence, 504 h, visual rating about 3 weeks after treatment vs untreated controls, read-out: post-emergence activity against VERPE in %. The procedure, abridged: as §3
Assay [18] concerns Amaranthus retroflexus (AMARE). Kind of assay: Herbicidal post-emergence action, section B (Table B11). To be noted: visual rating about 3 weeks after treatment vs untreated controls. The procedure, abridged:
as §3

In assay [19] the test system is Digitaria sanguinalis (DIGSA). Kind of assay: Herbicidal post-emergence action, section B (Table B12). To be noted: Digitaria sanguinalis, post-emergence, 504 h; application rate 1280 g/ha; visual rating about 3 weeks after treatment vs untreated controls; read-out: post-emergence activity against DIGSA in %. The method, then: as §2
Assay [20] relates to Kochia scoparia (KCHSC). Kind of assay: Herbicidal post-emergence action, section B (Table B4). The settings on record: Bassia scoparia, post-emergence, 504 h; application rate 1280 g/ha; visual rating about 3 weeks after treatment vs untreated controls; read-out: post-emergence activity against KCHSC in %. The method, boiled down:
as §3

The test system of assay [21] is Alopecurus myosuroides (ALOMY). Kind of assay: Herbicidal pre-emergence action, section A (Table A2). To be noted: application rate 1280 g/ha; visual grading after ca. 3 weeks vs untreated controls. An excerpt: Seeds of mono- and dicotyledonous weed plants were sown in plastic pots (double sowings with one species of mono- and one species of dicotyledonous weed plants per pot), in sandy loam, and covered with soil. The compounds according to the invention, formulated in the form of wettable powders (WP) or as emulsifiable concentrates (EC), were applied to the surface of the covering soil as aqueous suspension or emulsion, with the addition of 0.5% of an additive, at an application rate of 600 l of water per hectare (converted). Following treatment, the pots were placed in a greenhouse and kept under optimum growth conditions for the test plants. The visual grading of the damage to the test plants was carried out after ca. 3 weeks in comparison to untreated controls (herbicidal effect in percent (%): 100% effect=plants have died off, 0% effect=as control plants).

Take `Cc1cc2c(nc1-c1ccccc1Cl)N(S(C)(=O)=O)CS2` [Example I-142, 5-(2-chlorophenyl)-6-methyl-3-(methylsulfonyl)-2,3-dihydro[1,3]thiazolo[4,5-b]pyridine]: the pest or weed control at 320 g/ha in assay [1] (Echinochloa crus-galli, pre-emergence, 504 h, application rate 320 g/ha, read-out: pre-emergence activity against ECHCG in %) worked out at 100%; with Kochia scoparia (KCHSC) [2] (Bassia scoparia, pre-emergence, 504 h, application rate 320 g/ha, read-out: pre-emergence activity against KCHSC in %), 90%; in the assay on Lolium rigidum (LOLRI) [3] (Lolium rigidum, pre-emergence, 504 h, application rate 320 g/ha, read-out: pre-emergence activity against LOLRI in %) it was 100%; with Poa annua (POAAN) [5] (Poa annua, pre-emergence, 504 h, application rate 320 g/ha, read-out: pre-emergence activity against POAAN in %) it was 100%; with Setaria viridis (SETVI) [6] (Setaria viridis, 504 h, application rate 320 g/ha, read-out: pre-emergence activity against SETVI in %), 100%; in the assay with Stellaria media (STEME) [7], 90%. For the same compound, the pest or weed control at 320 g/ha with Veronica persica (VERPE) [8] was 90%; in assay [9] (Amaranthus retroflexus, 504 h, application rate 320 g/ha, read-out: pre-emergence activity against AMARE in %), 90%; in assay [12] (Echinochloa crus-galli, 504 h, application rate 320 g/ha, read-out: post-emergence activity against ECHCG in %), 90%; in the assay with Setaria viridis (SETVI) [15] it was 90%; in the assay on Veronica persica (VERPE) [17] (application rate 320 g/ha) it was 90%; in [18] (Amaranthus retroflexus, post-emergence, 504 h, application rate 320 g/ha, read-out: post-emergence activity against AMARE in %), 90%. The pest or weed control at 1280 g/ha was 90% in assay [4]; 100% in assay [10]; 90% in [11]; 90% with Lolium rigidum (LOLRI) [13]; 90% in the assay on Poa annua (POAAN) [14] (application rate 1280 g/ha); 90% in the assay on Stellaria media (STEME) [16]. Moreover, the pest or weed control at 1280 g/ha in [19] stood at 90%.
As to `Cc1cscc1-c1nc2c(cc1C)[S+]([O-])CN2` (centres unmarked) [Example I-023], the pest or weed control at 1280 g/ha in assay [1] (Echinochloa crus-galli, pre-emergence, 504 h, application rate 1280 g/ha, read-out: pre-emergence activity against ECHCG in %) was found to be 100%; with Kochia scoparia (KCHSC) [2] (Bassia scoparia, pre-emergence, 504 h, application rate 1280 g/ha, read-out: pre-emergence activity against KCHSC in %), 90%; with Lolium rigidum (LOLRI) [3] (Lolium rigidum, pre-emergence, 504 h, application rate 1280 g/ha, read-out: pre-emergence activity against LOLRI in %), 100%; in [4] it was 90%; with Poa annua (POAAN) [5] (Poa annua, pre-emergence, 504 h, application rate 1280 g/ha, read-out: pre-emergence activity against POAAN in %) it was 100%; in the assay with Setaria viridis (SETVI) [6] (Setaria viridis, 504 h, application rate 1280 g/ha, read-out: pre-emergence activity against SETVI in %) it was 100%. The pest or weed control at 1280 g/ha was found to be 90% in [9] (Amaranthus retroflexus, 504 h, application rate 1280 g/ha, read-out: pre-emergence activity against AMARE in %); 100% in assay [10]; 90% in assay [12] (Echinochloa crus-galli, 504 h, application rate 1280 g/ha, read-out: post-emergence activity against ECHCG in %); 90% in the assay with Kochia scoparia (KCHSC) [20]; 90% in the assay with Lolium rigidum (LOLRI) [13]; 90% in the assay with Stellaria media (STEME) [16]. The pest or weed control at 1280 g/ha in the assay with Veronica persica (VERPE) [17] (application rate 1280 g/ha) is 90%. Moreover, the pest or weed control at 320 g/ha with Stellaria media (STEME) [7], in the assay on Veronica persica (VERPE) [8] and with Poa annua (POAAN) [14] (application rate 320 g/ha) was 90% in each case.
As for `Cc1cc2c(nc1-c1cccc(F)c1F)N(C(=O)C13CCCC1C(Cl)=NO3)CS2` (centres unmarked) [Example I-156], the “pre-emergence activity against ALOMY in %” value in assay [21] came out at 90%. Further, the “pre-emergence activity against ECHCG in %” value in assay [1] (application rate 320 g/ha) stood at 90%. In addition, the “pre-emergence activity against KCHSC in %” value in the assay on Kochia scoparia (KCHSC) [2] (application rate 320 g/ha) is 90%. Further, the “pre-emergence activity against LOLRI in %” value in the assay with Lolium rigidum (LOLRI) [3] (application rate 320 g/ha) is recorded as 90%. Further, the “pre-emergence activity against MATIN in %” value in assay [4] came to 90%. In addition, the “pre-emergence activity against POAAN in %” value with Poa annua (POAAN) [5] (application rate 320 g/ha) was found to be 100%. Also, the “pre-emergence activity against SETVI in %” value with Setaria viridis (SETVI) [6] (application rate 320 g/ha) is 100%. For the same compound, the “pre-emergence activity against STEME in %” value in the assay on Stellaria media (STEME) [7] is on record as 90%. The “pre-emergence activity against VERPE in %” value in the assay on Veronica persica (VERPE) [8] (application rate 1280 g/ha) amounted to 90%. Further, the “pre-emergence activity against AMARE in %” value in assay [9] (application rate 320 g/ha) is 90%. In addition, the “pre-emergence activity against DIGSA in %” value in assay [10] (application rate 320 g/ha) was found to be 90%. The “post-emergence activity against ECHCG in %” value in [12] (application rate 1280 g/ha) is 90%. Moreover, the “post-emergence activity against LOLRI in %” value with Lolium rigidum (LOLRI) [13] worked out at 90%. Besides, the “post-emergence activity against STEME in %” value in the assay with Stellaria media (STEME) [16] (application rate 320 g/ha) was found to be 90%. In addition, in assay [18] (application rate 1280 g/ha), the “post-emergence activity against AMARE in %” value came out at 90%.
